Where a chain is given by its changes, count along the chain named. Read-outs that look alike come from different tables or passages of the source.
How the values were obtained:
hAR = molecular target: T1, hAR (Homo sapiens, UniProt P10275); assay: Competitive binding of 3H-DHT to baculovirus/Sf9 generated hAR extracts; details: one hour at 4° C., mean of multiple tests
T1 sequence (P10275 1-920): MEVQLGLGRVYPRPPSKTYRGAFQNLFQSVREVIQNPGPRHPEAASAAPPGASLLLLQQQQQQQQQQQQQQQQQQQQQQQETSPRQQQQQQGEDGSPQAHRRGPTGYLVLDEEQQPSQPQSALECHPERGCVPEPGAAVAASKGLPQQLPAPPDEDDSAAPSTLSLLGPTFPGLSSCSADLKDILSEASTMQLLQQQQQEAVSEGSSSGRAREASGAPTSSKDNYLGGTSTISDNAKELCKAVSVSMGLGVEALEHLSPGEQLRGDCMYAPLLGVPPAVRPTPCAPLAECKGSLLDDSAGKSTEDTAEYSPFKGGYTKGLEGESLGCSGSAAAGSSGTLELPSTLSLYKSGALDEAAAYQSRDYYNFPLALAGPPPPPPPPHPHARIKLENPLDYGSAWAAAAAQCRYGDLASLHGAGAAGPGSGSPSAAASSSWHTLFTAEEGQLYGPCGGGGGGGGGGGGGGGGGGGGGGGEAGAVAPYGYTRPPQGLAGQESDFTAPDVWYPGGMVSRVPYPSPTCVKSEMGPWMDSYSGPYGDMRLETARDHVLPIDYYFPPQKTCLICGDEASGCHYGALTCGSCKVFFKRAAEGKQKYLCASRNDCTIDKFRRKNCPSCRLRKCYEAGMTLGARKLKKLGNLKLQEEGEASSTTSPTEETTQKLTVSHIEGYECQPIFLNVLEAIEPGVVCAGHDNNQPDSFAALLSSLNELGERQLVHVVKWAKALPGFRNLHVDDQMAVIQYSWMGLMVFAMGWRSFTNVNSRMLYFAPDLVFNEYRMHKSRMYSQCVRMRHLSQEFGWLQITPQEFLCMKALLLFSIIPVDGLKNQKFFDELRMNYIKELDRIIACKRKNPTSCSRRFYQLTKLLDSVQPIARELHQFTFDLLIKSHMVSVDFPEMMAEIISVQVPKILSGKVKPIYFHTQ
In short: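 Baculovirus/Sf9-expressed hAR extract incubated with test compound, hydroxylapatite and 1 nM 3H-DHT tracer for 1 h at 4° C, then washed free of unbound tracer. Affinity given as concentration inhibiting half of maximal 3H-DHT binding.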

androgen receptor = molecular target: T2, androgen receptor (Homo sapiens, UniProt P10275); assay: AR Antagonist Cell Assay (MDA-MB453-MMTV clone 54-19, luciferase reporter); type: cell-based; details: inhibition of induction by DHT (final concentration at 100 μM), 17 hr, compound 0.32-1000 nM, mean of multiple tests
T2 sequence (P10275 1-920 Q868H): T1 sequence (P10275 1-920) with Q868H
In short: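 MDA-MB453 breast tumour cells stably carrying an ARE-containing MMTV promoter driving firefly luciferase, plated overnight at 37° C in charcoal-treated serum medium. DHT added (final […]) and incubated 17 hr at 37° C. Luminescence read after adding luciferase buffer; values are means of multiple tests.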

[1] = concentration at which one half of maximum binding of 1 nM 3H-DHT to hAR is inhibited, read-out: IC50
[2] = IC50, concentration at which one half of maximum binding of 1 nM 3H-DHT to hAR is inhibited

Row | SMILES | IC50 (hAR; [1]) [nM] | IC50 (androgen receptor; read-out: IC50) [nM] | IC50 (hAR; [2]) [nM] | IC50 (androgen receptor) [nM]
1 | Cc1ccsc1S(=O)(=O)N1CC(C)(C)C(Oc2ccc(C#N)c(C(F)(F)F)c2)C1=O (stereo not shown) [Example 87, 4-[4,4-Dimethyl-1-(3-methyl-thiophene-2-sulfonyl)-2-oxo-pyrrolidin-3-yloxy]-2-trifluoromethyl-benzonitrile] | 115 | 502 |  | 
2 | CC1(C)CN(S(=O)(=O)c2cccc(C#N)c2)C(=O)C1Oc1ccc(C#N)c(C(F)(F)F)c1 (stereo not shown) [Example 88, 4-[1-(3-Cyano-benzenesulfonyl)-4,4-dimethyl-2-oxo-pyrrolidin-3-yloxy]-2-trifluoromethyl-benzonitrile] | 110 | 134 |  | 
3 | CC1(C)CN(S(=O)(=O)c2cccs2)C(=O)C1Oc1ccc(C#N)c(C(F)(F)F)c1 (stereo not shown) [Example 93, 4-[4,4-Dimethyl-2-oxo-1-(thiophene-2-sulfonyl)-pyrrolidin-3-yloxy]-2-trifluoromethyl-benzonitrile] |  | > 1000 | 82 | 
4 | Cc1ccccc1S(=O)(=O)N1CC(C)(C)C(Oc2ccc(C#N)c(C(F)(F)F)c2)C1=O (stereo not shown) [Example 94, 4-[4,4-Dimethyl-2-oxo-1-(toluene-2-sulfonyl)-pyrrolidin-3-yloxy]-2-trifluoromethyl-benzonitrile] | 150 | > 1000 |  | 
5 | CC1(C)CN(S(=O)(=O)c2cccc(O)c2)C(=O)C1Oc1ccc(C#N)c(C(F)(F)F)c1 (stereo not shown) [Example 95, 4-[1-(3-Hydroxy-benzenesulfonyl)-4,4-dimethyl-2-oxo-pyrrolidin-3-yloxy]-2-trifluoromethyl-benzonitrile] |  | > 1000 | 8 | 
6 | CC1(C)CN(C2CCCC2)C(=O)C1Oc1ccc(C#N)c(C(F)(F)F)c1 (stereo not shown) [Example 98, 4-(1-Cyclopentyl-4,4-dimethyl-2-oxo-pyrrolidin-3-yloxy)-2-trifluoromethyl-benzonitrile] | 169 | 315 |  | 
7 | CSCN1CC(C)(C)C(Oc2ccc(C#N)c(C(F)(F)F)c2)C1=O (stereo not shown) [Example 99, 4-(4,4-Dimethyl-1-methylsulfanylmethyl-2-oxo-pyrrolidin-3-yloxy)-2-trifluoromethyl-benzonitrile] | 113 |  |  | 36
8 | CC1(C)CN(C(=O)Cc2ccccc2)C(=O)C1Oc1ccc(C#N)c(C(F)(F)F)c1 (stereo not shown) [Example 101, 4-(4,4-Dimethyl-2-oxo-1-phenylacetyl-pyrrolidin-3-yloxy)-2-trifluoromethyl-benzonitrile] | 174 | 83 |  | 
9 | CC1(C)CN(C(=O)c2ccc(C#N)cc2)C(=O)C1Oc1ccc(C#N)c(C(F)(F)F)c1 (stereo not shown) [Example 104, 4-[1-(4-Cyano-benzoyl)-4,4-dimethyl-2-oxo-pyrrolidin-3-yloxy]-2-trifluoromethyl-benzonitrile] | 248 |  |  | 37
10 | CC1(C)CN(C(=O)c2cccc(C#N)c2)C(=O)C1Oc1ccc(C#N)c(C(F)(F)F)c1 (stereo not shown) [Example 107, 4-[1-(3-Cyano-benzoyl)-4,4-dimethyl-2-oxo-pyrrolidin-3-yloxy]-2-trifluoromethyl-benzonitrile] |  | 653 | 68 | 
11 | COc1cc(OC2C(=O)N(C(C)c3ccccc3)CC2(C)C)ccc1C#N (stereo not shown) [Example 110, 4-[4,4-Dimethyl-2-oxo-1-(1-phenyl-ethyl)-pyrrolidin-3-yloxy]-2-methoxy-benzonitrile] |  | 126 | 87 | 
12 | CC1(C)CN(Cc2nnc(-c3ccccc3O)o2)C(=O)C1Oc1ccc(C#N)c(C(F)(F)F)c1 (stereo not shown) [Example 112, 4-{1-[5-(2-Hydroxy-phenyl)-[1,3,4]oxadiazol-2-ylmethyl]-4,4-dimethyl-2-oxo-pyrrolidin-3-yloxy}-2-trifluoromethyl-benzonitrile] |  | 198 | 85 | 
13 | CC1(C)CN(Cc2nnc(-c3cccc(O)c3)o2)C(=O)C1Oc1ccc(C#N)c(C(F)(F)F)c1 (stereo not shown) [Example 113, 4-{1-[5-(3-Hydroxy-phenyl)-[1,3,4]oxadiazol-2-ylmethyl]-4,4-dimethyl-2-oxo-pyrrolidin-3-yloxy)-2-trifluoromethyl-benzonitrile] | 224 | 651 |  | 
14 | CC1(C)CN(Cc2nnc(-c3ccc(O)cc3)o2)C(=O)C1Oc1ccc(C#N)c(C(F)(F)F)c1 (stereo not shown) [Example 114, 4-{1-[5-(4-Hydroxy-phenyl)-[1,3,4]oxadiazol-2-ylmethyl]-4,4-dimethyl-2-oxo-pyrrolidin-3-yloxy}-2-trifluoromethyl-benzonitrile] |  | 656 | 41 | 
15 | CC1(C)CN(Cc2nnc(-c3cccc(F)c3)o2)C(=O)C1Oc1ccc(C#N)c(C(F)(F)F)c1 (stereo not shown) [Example 115, 4-{1-[5-(3-Fluoro-phenyl)-[1,3,4]oxadiazol-2-ylmethyl]-4,4-dimethyl-2-oxo-pyrrolidin-3-yloxy}-2-trifluoromethyl-benzonitrile] | 142 | 415 |  | 
16 | CC1(C)CN(Cc2nnc(-c3ccc(F)cc3)o2)C(=O)C1Oc1ccc(C#N)c(C(F)(F)F)c1 (stereo not shown) [Example 116, 4-{1-[5-(4-Fluoro-phenyl)-[1,3,4]oxadiazol-2-ylmethyl]-4,4-dimethyl-2-oxo-pyrrolidin-3-yloxy}-2-trifluoromethyl-benzonitrile] | 206 | 369 |  | 
17 | Cc1ccc(-c2nnc(CN3CC(C)(C)C(Oc4ccc(C#N)c(C(F)(F)F)c4)C3=O)o2)s1 (stereo not shown) [Example 117, 4-{4,4-Dimethyl-1-[5-(5-methyl-thiophen-2-yl)-[1,3,4]oxadiazol-2-ylmethyl]-2-oxo-pyrrolidin-3-yloxy}-2-trifluoromethyl-benzonitrile] | 259 | 117 |  | 
18 | COc1cccc(-c2nnc(CN3CC(C)(C)C(Oc4ccc(C#N)c(C(F)(F)F)c4)C3=O)o2)c1 (stereo not shown) [Example 118, 4-{1-[5-(3-Methoxy-phenyl)-[1,3,4]oxadiazol-2-ylmethyl]-4,4-dimethyl-2-oxo-pyrrolidin-3-yloxy}-2-trifluoromethyl-benzonitrile] | 170 | 381 |  | 
19 | COc1ccc(-c2nnc(CN3CC(C)(C)C(Oc4ccc(C#N)c(C(F)(F)F)c4)C3=O)o2)cc1 (stereo not shown) [Example 119, 4-{1-[5-(4-Methoxy-phenyl)-[1,3,4]oxadiazol-2-ylmethyl]-4,4-dimethyl-2-oxo-pyrrolidin-3-yloxy}-2-trifluoromethyl-benzonitrile] |  | 199 | 80 | 
20 | COc1ccccc1-c1nnc(CN2CC(C)(C)C(Oc3ccc(C#N)c(C(F)(F)F)c3)C2=O)o1 (stereo not shown) [Example 121, 4-{1-[5-(2-Methoxy-phenyl)-[1,3,4]oxadiazol-2-ylmethyl]-4,4-dimethyl-2-oxo-pyrrolidin-3-yloxy}-2-trifluoromethyl-benzonitrile] | 131 | 166 |  | 
